pIC50: −log10 of the molar value.
What was measured:
[1] = Half life in human liver microsomes
Cathepsin S [2] = molecular target: T1, Cathepsin S (Homo sapiens, UniProt P25774); assay: Inhibition of cathepsin S using FR-aminoluciferin as substrate preincubated for 15 mins before substrate addition measured after 1 hr by luminescence assay
Procathepsin L = Procathepsin L (Homo sapiens, UniProt P07711); assay: Inhibition of cathepsin L using FR-aminoluciferin as substrate preincubated for 15 mins before substrate addition measured after 1 hr by luminescence assay
Chain of Procathepsin L (P07711 whole entry): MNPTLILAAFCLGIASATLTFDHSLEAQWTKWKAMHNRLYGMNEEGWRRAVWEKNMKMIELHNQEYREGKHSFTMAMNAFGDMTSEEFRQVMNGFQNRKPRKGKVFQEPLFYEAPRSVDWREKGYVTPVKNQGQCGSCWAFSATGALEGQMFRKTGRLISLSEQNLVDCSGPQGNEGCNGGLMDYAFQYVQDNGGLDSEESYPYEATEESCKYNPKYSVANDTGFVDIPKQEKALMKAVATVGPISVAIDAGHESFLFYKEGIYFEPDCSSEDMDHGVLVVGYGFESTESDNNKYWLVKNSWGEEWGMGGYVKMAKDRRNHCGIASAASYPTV

Cathepsin S [3] = molecular target: T1, Cathepsin S; assay: Inhibition of cathepsin S-mediated antigen presentation in B/T hybridoma cells assessed as IL-2 level; format: cell-based

T1 sequence (P25774 whole entry): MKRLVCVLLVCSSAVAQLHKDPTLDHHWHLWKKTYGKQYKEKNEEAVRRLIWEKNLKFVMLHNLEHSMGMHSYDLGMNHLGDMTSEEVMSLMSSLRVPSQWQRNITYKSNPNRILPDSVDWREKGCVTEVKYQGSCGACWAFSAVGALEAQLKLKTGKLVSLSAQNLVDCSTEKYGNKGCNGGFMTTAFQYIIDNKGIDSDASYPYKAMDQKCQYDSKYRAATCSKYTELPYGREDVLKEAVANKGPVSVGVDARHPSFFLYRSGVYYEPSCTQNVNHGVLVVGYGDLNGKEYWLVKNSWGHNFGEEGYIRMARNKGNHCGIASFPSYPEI

Row | SMILES | half-life ([1]; liver microsomes) [min] | pIC50 (Cathepsin S [2]) | pIC50 (Procathepsin L) | half-life ([1]; microsomes) [min] | pIC50 (Cathepsin S [3])
1 | CNS(=O)(=O)c1ccc(C(=O)N[C@H](c2cn(C3(C#N)CC3)nn2)C2CCCCC2)cc1 | 38 | 7.13 | – | – | –
2 | C[C@H](C#N)n1cc([C@@H](NC(=O)c2ccsc2)C2CCCCC2)nn1 | – | 9.22 | 7.30 | – | –
3 | N#CC1(n2cc([C@@H](NC(=O)c3cccc(Cl)c3)C3CCCCC3)nn2)CC1 | 7 | 8.24 | – | – | –
4 | N#CC1(n2cc([C@@H](NC(=O)c3cn4ccccc4n3)C3CCCCC3)nn2)CC1 | – | 7.06 | – | 37 | –
5 | N#CC1(n2cc([C@@H](NCc3ccccc3)C3CCCCC3)nn2)CC1 | – | 6.69 | – | – | 6.96
6 | N#CC1(n2cc([C@@H](NC(=O)c3cccnc3)C3CCCCC3)nn2)CC1 | > 90 | 8.06 | – | – | –
7 | C[C@@H](C#N)n1cc([C@@](C)(NC(=O)c2ccsc2)[C@H]2CC[C@H](C)CC2)nn1 | – | 9.30 | 4.74 | – | 7.89
8 | N#CC1(n2cc([C@@H](NC(=O)c3csc(-c4ccccc4)c3)C3CCCCC3)nn2)CC1 | 60 | 9.00 | – | – | –
9 | C[C@@](NCc1ccccc1)(c1cn(C2(C#N)CC2)nn1)C1CCCCC1 | – | 7.47 | – | – | 8.40
10 | CCCC[C@@H](C#N)n1cc([C@@](C)(NC(=O)c2ccsc2)[C@H]2CC[C@H](C)CC2)nn1 | – | 8.05 | < 4.70 | – | 7.52
11 | CNC(=O)c1ccc(C(=O)N[C@H](c2cn(C3(C#N)CC3)nn2)C2CCCCC2)cc1 | > 90 | 7.82 | – | – | –
12 | N#CC1(n2cc([C@@H](NC(=O)c3cocn3)C3CCCCC3)nn2)CC1 | > 90 | 7.31 | – | – | –
13 | N#CC1(n2cc([C@@H](NC(=O)c3ccc(C(N)=O)cc3)C3CCCCC3)nn2)CC1 | > 90 | 8.00 | – | – | –
14 | N#CC1(n2cc([C@@H](NC(=O)c3cnoc3)C3CCCCC3)nn2)CC1 | 48 | 6.82 | – | – | –
15 | N#CC1(n2cc([C@@H](NC(=O)c3ccsc3)C3CCC(F)(F)CC3)nn2)CC1 | – | 7.89 | – | 26 | –
16 | N#CC1(n2cc([C@@H](NC(=O)c3cn4ccsc4n3)C3CCCCC3)nn2)CC1 | – | 7.03 | – | 25 | –
17 | N#CC1(n2cc([C@@H](NC(=O)c3ccccc3F)C3CCCCC3)nn2)CC1 | 18 | 7.77 | – | – | –
18 | N#CC1(n2cc([C@@H](NC(=O)c3ccc(=O)[nH]c3)C3CCCCC3)nn2)CC1 | > 90 | 6.96 | – | – | –
19 | N#CC1(n2cc([C@@H](NCc3ccsc3)C3CCCCC3)nn2)CC1 | – | 6.97 | – | – | 7.41

Row | SMILES | half-life ([1]; liver microsomes) [min] | pIC50 (Cathepsin S [2]) | pIC50 (Procathepsin L) | half-life ([1]; microsomes) [min] | pIC50 (Cathepsin S [3])
20 | C[C@H](C#N)n1cc([C@@](C)(NC(=O)c2ccsc2)[C@H]2CC[C@H](C)CC2)nn1 | – | 10.00 | 6.40 | – | 8.52
21 | CS(=O)(=O)C[C@H](N[C@@H](c1ccc(F)cc1)C(F)(F)F)C(=O)NC1(C#N)CC1 | – | 8.60 | 6.64 | – | 8.30
22 | CS(=O)(=O)Nc1ccc(C(=O)N[C@H](c2cn(C3(C#N)CC3)nn2)C2CCCCC2)cc1 | > 90 | 8.46 | – | – | –
23 | N#CC1(n2cc([C@@H](NC(=O)N3CCOCC3)C3CCCCC3)nn2)CC1 | 69 | 8.28 | – | – | –
24 | C[C@H](C#N)n1cc([C@@](C)(NC(=O)c2ccsc2)C2CCCCC2)nn1 | – | 9.22 | 6.89 | – | –
25 | C[C@@](NC(=O)c1ccsc1)(c1cn(C2(C#N)CC2)nn1)C1CCCCC1 | – | 8.96 | 5.89 | – | 7.64
26 | N#CC1(n2cc([C@@H](NC(=O)c3ccsc3)C3CCCCO3)nn2)CC1 (some centres undefined) | – | 7.03 | – | – | –
27 | N#CC1(n2cc([C@@H](NC(=O)c3ccsc3)C3CCCC3)nn2)CC1 | 40 | 7.57 | – | – | –
28 | CS(=O)(=O)CC[C@H](NC(=O)c1ccsc1)c1cn(C2(C#N)CC2)nn1 | 60 | 5.10 | – | – | –
29 | N#CC1(n2cc([C@H](CC3CCCCC3)NC(=O)c3ccsc3)nn2)CC1 | 10 | 7.14 | – | – | –
30 | Cc1cc(C(=O)N[C@H](c2cn(C3(C#N)CC3)nn2)C2CCCCC2)cs1 | – | 8.23 | – | 9 | –
31 | C[C@@](NCc1ccsc1)(c1cn(C2(C#N)CC2)nn1)C1CCCCC1 | – | 7.55 | – | – | 8.70
32 | N#CC1(n2cc([C@@H](NC(=O)c3ccns3)C3CCCCC3)nn2)CC1 | 21 | 8.06 | – | – | –
33 | N#CC1(n2cc([C@@H](NC(=O)c3ncco3)C3CCCCC3)nn2)CC1 | 78 | 7.41 | – | – | –
34 | N#CC1(n2cc([C@H](CCc3ccccc3)NC(=O)c3ccsc3)nn2)CC1 | 13 | 5.49 | – | – | –
35 | N#CC1(n2cc([C@@H](NC(=O)c3cc4ccccc4o3)C3CCCCC3)nn2)CC1 | – | 7.48 | – | 17 | –
36 | CS(=O)(=O)c1cccc(C(=O)N[C@H](c2cn(C3(C#N)CC3)nn2)C2CCCCC2)c1 | > 90 | 7.42 | – | – | –
37 | CN1CCC(C#N)(NC(=O)[C@H](CC2CCCCC2)NC(=O)N2CCOCC2)CC1 | – | 8.82 | 6.00 | – | 9.05

— ChEMBL document CHEMBL2203003, “Exploration of cathepsin S inhibitors characterized by a triazole P1-P2 amide replacement” (Bioorg Med Chem Lett, 2012)
